# Data taken from US10329304B2, “Compounds and methods for inhibition of hedgehog signaling and phosphodiesterase” (Vanderbilt University, priority 2014, dated 2019).
# “And” between values parts separate entries of the source, which are not always exact repeats. Equal values may be shown once. “Also recorded” adds a separate entry of the source. Read-outs that look alike come from different tables or passages of the source.
# Tests used:
# MCF7 = test: Cell viability assay (CellTiter-Blue, 72 hr); format: cell-based; conditions: human cancer cells
# Procedure: (§1) Cancer cell lines were seeded in 96 well tissue culture plate at a low density (10,000 cells per well) and treated with varying concentrations of Eggmanone. After 72 hr incubation, CellTiter-Blue Cell Viability Assay (Promega, Madison, Wis.) was then performed according to manufacturer's protocol. Absorbance was then measured in a Modulus Microplate reader (Promega, Madison, Wis.) at 590 nm and compared to cells treated with DMSO.
# as §1, with “density” for “density (10,000 cells per well)”, “compounds identified in Table 7.” for “Eggmanone.”
# PDE4D2 = target: T1, PDE4D2 (Homo sapiens, UniProt Q08499); test: In vitro PDE assay; format: biochemical; conditions: for IC50: Table 9A
# T1 construct: purchased BPS Biosciences (San Diego, Calif.)
# T1 sequence (Q08499 303-809): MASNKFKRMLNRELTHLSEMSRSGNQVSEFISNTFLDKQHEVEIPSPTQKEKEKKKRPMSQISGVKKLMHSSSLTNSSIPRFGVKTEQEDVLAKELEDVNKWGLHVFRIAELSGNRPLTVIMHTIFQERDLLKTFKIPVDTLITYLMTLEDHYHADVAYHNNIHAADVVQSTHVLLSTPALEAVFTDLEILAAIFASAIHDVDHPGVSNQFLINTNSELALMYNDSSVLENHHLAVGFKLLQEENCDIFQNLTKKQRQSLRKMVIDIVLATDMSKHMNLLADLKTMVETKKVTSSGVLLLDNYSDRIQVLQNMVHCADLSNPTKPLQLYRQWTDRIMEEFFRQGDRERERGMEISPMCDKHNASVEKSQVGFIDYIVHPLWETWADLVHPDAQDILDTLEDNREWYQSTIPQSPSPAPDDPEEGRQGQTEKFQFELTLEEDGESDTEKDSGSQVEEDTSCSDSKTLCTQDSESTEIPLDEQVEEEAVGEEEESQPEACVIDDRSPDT
# Procedure, shortened: (§2)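 Fluorescence polarization readout: FAM-AMP formed from 100 nM FAM-cAMP binds nano-bead agent (60 min) and is read at ex 485/em 528 nm. Enzyme reactions ran 60 min at room temperature in duplicate, Tris-HCl pH 7.4 buffer with 10 mM MgCl2 and 0.05% Tween 20, compound in 1% final DMSO.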
# PDE4D3 = target: T2, PDE4D3 (Homo sapiens, UniProt Q08499); test: In vitro PDE assay; format: biochemical; conditions: for IC50: Table 9A; for Mode of inhibition (Lineweaver-Burk, Eadie Hofstee): purified PDE4D3
# T2 construct: purchased BPS Biosciences (San Diego, Calif.); kinetic studies by Millipore (St. Louis, Mo.)
# T2 sequence (Q08499 1-673 isoform Q08499-2): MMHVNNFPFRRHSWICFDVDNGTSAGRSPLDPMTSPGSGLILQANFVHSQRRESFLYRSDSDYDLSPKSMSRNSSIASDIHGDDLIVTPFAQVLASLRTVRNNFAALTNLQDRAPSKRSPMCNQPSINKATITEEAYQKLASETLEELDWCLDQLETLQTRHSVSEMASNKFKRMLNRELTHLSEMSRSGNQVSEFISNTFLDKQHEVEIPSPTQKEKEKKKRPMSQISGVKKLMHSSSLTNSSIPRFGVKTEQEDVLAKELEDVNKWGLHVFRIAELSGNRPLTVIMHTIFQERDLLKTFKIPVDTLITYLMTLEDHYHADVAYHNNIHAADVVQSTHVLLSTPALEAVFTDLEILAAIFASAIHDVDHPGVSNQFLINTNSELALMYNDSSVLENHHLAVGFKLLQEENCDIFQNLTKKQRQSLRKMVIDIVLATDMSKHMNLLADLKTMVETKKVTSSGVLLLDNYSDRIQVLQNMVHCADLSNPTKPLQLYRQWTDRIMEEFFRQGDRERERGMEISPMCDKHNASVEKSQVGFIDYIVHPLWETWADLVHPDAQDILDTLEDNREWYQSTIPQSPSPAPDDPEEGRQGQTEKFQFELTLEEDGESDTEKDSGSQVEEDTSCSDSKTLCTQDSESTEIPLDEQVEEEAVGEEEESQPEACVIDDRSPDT
# Procedure, shortened: as §2
# [1] = test system: Hedgehog signaling (Gli-Luc reporter); test: Hh Gli-Luciferase reporter assay in Shh-Light2 cells; format: cell-based, mouse; conditions: for Sonic hedgehog (SHH)-responsive Gli-luciferase reporter activity: Shh-conditioned media; for Purmorphamine-induced Gli-Luc reporter activity: purmorphamine 3 μM; for IC50 / EC50: Mus musculus, Shh Light2; for EC50: Table 9A, read-out: Shh Light2 Luc EC50
# Procedure, shortened: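 Steady-Glo luminescence, corrected for cell titer by CellTiter-Glo, was measured after overnight exposure to compound concentrations. Signaling in Gli-Luc Shh-Light2 cells came either from Shh-conditioned medium, 3 μM purmorphamine or 20 nM SAG, or from transfected Gli-2, PDE4D3 or DN-PDE4D3 constructs.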
# HeLa = test: Cell viability assay (CellTiter-Blue, 72 hr); format: cell-based, Human
# Procedure, shortened: (§3)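 Read-out is absorbance at 590 nm, compared against DMSO-only wells. Before this, cancer cells seeded sparsely at 10,000 per well received varying concentrations of compound.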
# DU145 = test: Cell viability assay (CellTiter-Blue, 72 hr); format: cell-based, Human
# Procedure, shortened: as §3
# SW480 = test: Cell viability assay (CellTiter-Blue, 72 hr); format: cell-based, Human; conditions: SW480; human cancer cells; read-out: CELL KILLING EC50 (μM) Colon SW480
# Procedure, shortened: as §3
# PDE4D = PDE4D (Homo sapiens, UniProt Q08499); test: PDE4 inhibition assay (PDE4D IC50); format: biochemical; conditions: read-out: PDE4D IC50
# Procedure, shortened: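 Duplicate 60 min room-temperature reactions hold 100 nM FAM-cAMP substrate, PDE4D enzyme and test compound at 1% final DMSO in pH7.4 Tris buffer. Product FAM-AMP captured by bead binding agent (60 min), with fluorescence read at excitation 485, emission 528 nm.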
# [2] = human cancer cells, read-out: CELL KILLING EC50 (μM) Cervix HeLa
# [3] = DU-145, human cancer cells, read-out: CELL KILLING EC50 (μM) Prostate DU145
SMILES,CELL KILLING EC50 (μM) Breast MCF7 (MCF7),IC50 (PDE4D2),IC50 (PDE4D3),EC50 (HeLa; [2]),EC50 (DU145; [3]),EC50 (SW480),IC50 (PDE4D),IC50 [1],other results
"C=C(C)Cn1c(SCC(=O)c2cccs2)nc2sc3c(c2c1=O)CCCC3 [EGM, Eggmanone]",UnCh,1.3 µM,1.1 µM,12.4 µM,41.9 µM,0.534 µM,,,"Mode of inhibition (Lineweaver-Burk, Eadie Hofstee) (PDE4D3): competitive mode of inhibition; also recorded: acts in a competitive manner; Sonic hedgehog (SHH)-responsive Gli-luciferase reporter activity [1]: inhibited Sonic hedgehog (SHH)-responsive Gli-luciferase (Gli-Luc) reporter activity in a dose-dependent manner; Purmorphamine-induced Gli-Luc reporter activity [1]: inhibited purmorphamine (Purm, 3 μM)-induced Gli-Luc reporter activity in a dose-dependent manner"
"C=C(C)Cn1c(SCC(=O)c2cccs2)nc2sc3c(c2c1=O)CCCC3 [Eggmanone, 3-(2-methylallyl)-2-((2-oxo-2-(thiophen-2-yl)ethyl)thio)-5,6,7,8-tetrahydrobenzo[4,5]thieno[2,3-d]pyrimidine-4(3H)-one]",,,,,,,0.89 µM and 0.893 µM,1.5 µM,"Inhibition of super-short isoform PDE4D2 (PDE4D2): not inhibited; Potency against PDE4D3 versus any tested PDE not of the PDE4 family (PDE4D3): at least 60 fold; Mode of inhibition (Lineweaver-Burk, Eadie Hofstee) (PDE4D3): exhibited a competitive mode of inhibition; Sonic hedgehog (SHH)-responsive Gli-luciferase reporter activity [1]: inhibited Hh-inducible Gli-responsive luciferase (Gli-Luc) activity in a dose dependent manner; Sonic hedgehog (SHH)-responsive Gli-luciferase reporter activity ([1]; listed as eggmanone): inhibited Hh-inducible Gli-responsive luciferase (Gli-Luc) activity in a dose dependent manner; Purmorphamine-induced Gli-Luc reporter activity [1]: blocked Gli-Luc reporter and ptch1 induction by purmorphamine"
CCCn1c(SCC(=O)c2cccs2)nc2sc3c(c2c1=O)CCCC3 [Formula 9e],,,,,,,,,"IC50 (PDE4D; mean ± SEM, normalized to DMSO): 0.486 ± 0.001 µM"
C=C(C)Cn1c(SCC(=O)c2ccccc2)nc2sc3c(c2c1=O)CCCC3 [Formula 9g],,,,,,,,,"IC50 (PDE4D; mean ± SEM, normalized to DMSO): 0.965 ± 0.1 µM"
O=C(CSc1nc2sc3c(c2c(=O)n1C1CC1)CCCC3)c1cccs1 [JEH-3-039-2],,,> 100 µM,,,,,,
C=CCn1c(SCC(=O)c2cccs2)nc2sc3c(c2c1=O)CCCC3 [JEH-3-039-3],UnCh,> 100 µM,> 100 µM,36.9 µM,71 µM,3.63 µM,,,
C=C(C)Cn1c(SCC(=O)c2ccccc2)nc2sc3c(c2c1=O)CCCC3 [JEH-3-045-1],,14 µM,18 µM,,,,,,
C=C(C)Cn1c(SCC(=O)c2ccncc2)nc2sc3c(c2c1=O)CCCC3 [JEH-3-048-1],UnCh,16 µM,24 µM,23.6 µM,100 µM,1.87 µM,16 µM,10 µM,
C=C(C)Cn1c(SCC(=O)c2ccccn2)nc2sc3c(c2c1=O)CCCC3 [JEH-3-063],UnCh,4.9 µM,23 µM,9.18 µM,0.684 µM,8.05 µM,4.9 µM,15 µM,"EC50 [1]: 10 to 20 µM; EC50 (HeLa; 72 h, read-out: EC50 (50% reduction of viable cell count at 72 hours), Human Cervical Adenocarcinoma): 9.2 µM; EC50 (DU145; DU-145, 72 h, read-out: EC50 (50% reduction of viable cell count at 72 hours), DU145, Human Prostate Adenocarcinoma): 0.684 µM"
C=C(C)Cn1c(SCC(=O)c2nccs2)nc2sc3c(c2c1=O)CCCC3 [JEH-3-069-1],UnCh,6.4 µM,15 µM,100 µM,47.5 µM,6.92 µM,,,EC50 [1]: 10 to 20 µM
